A short description of data set [1]: Spectral properties of rhodamine bis-boronic acids and precursors in DMSO:buffer. On the set-up: Brightness: scale not given here. The following applies: for Quenching of emission (PET) of the free boronic acid: DMSO buffer 1:9. The data set is classed as physicochemical. As for the experimental part: Characterization: The spectral properties of compounds 50-53 were determined. Absorption and fluorescence spectra of solutions of the rhodamine bis-boronic acids 51 and 53, and their respective precursors 50 and 52, are shown in FIGS. 27A-C (in DMSO:buffer 1:9) and 27D-F (DMSO:buffer 1:1). […] Excitation and emission spectra were normalized to their absorbance at the excitation wavelength, and are proportional to quantum yield.

Data set [2] is described as follows: Saccharide sensing, response to ribose. The following applies: DMSO:buffer 1:1, entire concentration range. As for the experimental part:
(§1) Solvents including MeCN, MeOH, EtOH, DMSO and buffer were initially screened for sugar sensing. […] DMSO mixtures were chosen for further studies.
(§2) The final pH 7.4 phosphate buffer concentration was 12.5 mM.

The nature of data set [3]: Saccharide sensing, response to fructose. As for the experimental part:
as §1, §2

Setting [4] is: DMSO:buffer 1:1, pH 7.4 phosphate buffer 12.5 mM.
Setting [5] is: DMSO:buffer 1:9, pH 7.4 phosphate buffer 12.5 mM.

These results are taken from patent US9958451B2, “Near-infrared fluorescent dyes with large stokes shifts” (Portland State University, priority 2011, dated 2018).

Marks after values point to notes of the source that are not given here.

For the compound `O=C(O)c1ccccc1-c1c2ccc(=NCc3ccccc3B(O)O)cc-2oc2c1ccc1cc(NCc3ccccc3B(O)O)ccc12` [Compound 51, seminaphthorhodamine bis-boronic acid], in data set [1], the “Quenching of emission (PET) of the free boronic acid” value is on record as “slightly quenched”. In addition, in data set [1] (DMSO:buffer 1:1), the Brightness is listed as 8037, the Em stood at 643 nm, the Ex came to 580 nm and the Q.Y. is given as 0.35. The compound also had a ε in data set [1] (DMSO:buffer 1:1) of 23096 M⁻¹ cm⁻¹. Besides, the Abs in data set [1] (setting [4]) turned out to be 579 nm. Moreover, in data set [1] (DMSO:buffer 1:9), the Brightness was 3032^e, the Em is 638 nm, the Ex is 568 nm and the Q.Y. worked out at 0.15. The compound further yielded a ε in data set [1] (DMSO:buffer 1:9) of 20326 M⁻¹ cm⁻¹. For the same compound, the Abs in data set [1] (setting [5]) is reported as 560 nm. In data set [2], the Increase in absorbance result was “approximately 1.5 fold” and the Increase in fluorescence result was “approximately 1.5 fold”.

With `O=C(O)c1ccccc1-c1c2ccc3cc(NCc4ccccc4B(O)O)ccc3c2oc2c1ccc1cc(=NCc3ccccc3B(O)O)ccc12` [Compound 53, naphthorhodamine bis-boronic acid], in data set [1], the “Quenching of emission (PET) of the free boronic acid” value is reported as “nearly completely quenched”. In data set [1] (DMSO:buffer 1:1), the Brightness is 292^g, the Em was found to be 700 nm, the Ex was determined as 624 nm and the Q.Y. is 0.18. In data set [1] (DMSO:buffer 1:1), this compound returned a ε of 1616 M⁻¹ cm⁻¹. In data set [1] (setting [4]), this compound registered an Abs of 616 nm. Further, in data set [1] (DMSO:buffer 1:9), the Brightness is 43^d,f, the Em is 692 nm, the Ex is on record as 612 nm and the Q.Y. is 0.004. The ε in data set [1] (DMSO:buffer 1:9) came out at 10759 M⁻¹ cm⁻¹. The same compound registered an Abs in data set [1] (setting [5]) of 628 nm. Further, in data set [3] (DMSO:buffer 1:9), the “Estimated quantum yield after binding” value is recorded as 0.186. Also, the “Increase in absorbance at 630 nm” value in data set [3] (DMSO:buffer 1:9, highest concentration of fructose) is given as “less than 3 fold”.
